Molecules are shown by their SMILES.

The source of these data is patent US8481539B2, “Alkynylaryl compounds and salts thereof, pharmaceutical compositions comprising same, methods of preparing same and uses of same” (Bayer Intellectual Property GmbH, priority 2007, dated 2013).

Assay [1] concerns the target T1, human insuline receptor (Ins-R) (Homo sapiens, UniProt P06213).
T1 construct: GST-tagged recombinant kinase domain of the human insuline receptor; GST; purchased ProQinase, Freiburg, Germany; host or cells: SF-9 cells
As to the kind of experiment: Insulin Receptor HTRF Assay (assay 4). Format: biochemical. The following applies: pIC50 class; 10 μM ATP; read-out: Enzymatic InsR activity (assay 4). On the procedure:
Assay 4: Insulin Receptor HTRF Assay
Inhibitory activity of compounds against the kinase activity of the insulin receptor was quantified employing the Ins-R HTRF assay as described in the following paragraphs.
GST-tagged recombinant kinase domain of the human insuline receptor (Ins-R, purchase from ProQinase, Freiburg, Germany) expressed in SF-9 cells was used as kinase. As substrate for the kinase reaction biotinylated poly-(Glu, Tyr) (Cis biointernational, France) was used.
Ins-R was incubated for 20 min at 22° C. in the presence of different concentrations of test compounds in 5 μl assay buffer [50 mM Hepes/NaOH pH 7, 15 mM MnCl2, 1 mM dithiothreitol, 0.1 μM sodium ortho-vanadate, 0.015% (v/v) PEG20000, 10 μM adenosine-tri-phosphate (ATP), 0.3 μg/ml substrate, 1% (v/v) dimethylsulfoxide]. The concentration of Ins-R was adjusted depending of the activity of the enzyme lot and was chosen appropriate to have the assay in the linear range, typical concentrations were in the range of 10 pg/μl. The reaction was stopped by the addition of 5 μl of a solution of HTRF detection reagents (0.1 μM streptavidine-XLent and 1 nM PT66-Eu-Chelate, an europium-chelate labelled anti-phospho-tyrosine antibody from Perkin Elmer) in an aqueous EDTA-solution (80 mM EDTA, 0.2% (w/v) bovine serum albumin in 50 mM HEPES/NaOH pH 7.0).
(§1) The resulting mixture was incubated 1 h at 22° C. to allow the binding of the biotinylated phosphorylated peptide to the streptavidine-XLent and the PT66-Eu-Chelate. Subsequently the amount of phosphorylated substrate was evaluated by measurement of the resonance energy transfer from the PT66-Eu-Chelate to the streptavidine-XLent. Therefore, the fluorescence emissions at 620 nm and 665 nm after excitation at 350 nm was measured in a HTRF reader, e.g. a Rubystar (BMG Labtechnologies, Offenburg, Germany) or a Viewlux (Perkin-Elmer). The ratio of the emissions at 665 nm and at […] was taken as the measure for the amount of phosphorylated substrate. The data were normalised (enzyme reaction without inhibitor=0% inhibition, all other assay components but no enzyme=100% inhibition) and IC50 values were calculated by a 4 parameter fit using an inhouse software.
A general note: Time-resolved FRET reads energy transfer from a long-lived donor to a nearby acceptor.

The next assay deals with T2, human VEGFR2 (Homo sapiens, UniProt P35968).
T2 construct: GST-tagged recombinant kinase domain of the human VEGFR2; GST; host or cells: SF-9 cells
T2 sequence (P35968 834-1162 limits assumed): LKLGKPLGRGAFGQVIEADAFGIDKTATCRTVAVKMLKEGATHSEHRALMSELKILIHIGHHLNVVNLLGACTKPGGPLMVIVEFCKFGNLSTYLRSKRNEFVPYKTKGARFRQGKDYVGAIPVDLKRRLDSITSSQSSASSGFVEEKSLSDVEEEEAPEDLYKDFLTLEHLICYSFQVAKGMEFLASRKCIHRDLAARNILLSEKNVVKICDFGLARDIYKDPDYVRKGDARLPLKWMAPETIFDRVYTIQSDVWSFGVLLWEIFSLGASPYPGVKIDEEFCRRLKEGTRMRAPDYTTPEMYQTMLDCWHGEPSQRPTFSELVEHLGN
Kind of assay: VEGFR2 HTRF Assay (assay 5). Format: biochemical. To be noted: pIC50 class; 10 μM ATP; read-out: Enzymatic VEGFR2 activity (assay 5).
Description: Assay 5: VEGFR2 HTRF Assay
VEGFR2 inhibitory activity of compounds of the present invention was quantified employing the VEGFR2 HTRF assay as described in the following paragraphs.
GST-tagged recombinant kinase domain of the human VEGFR2 expressed in SF-9 cells was used as kinase. As substrate for the kinase reaction the biotinylated peptide biotin-Ahx-DFGLARDMYDKEYYSVG (C-terminus in acid form) was used which can be purchased e.g. form the company Biosynthan GmbH (Berlin-Buch, Germany). VEGFR2 was incubated for 45 min at 22° C. in the presence of different concentrations of test compounds in 5 μl assay buffer [50 mM Hepes/NaOH pH 7.0, 25 mM MgCl2, 5 mM MnCl2, 1.0 mM dithiothreitol, 0.1 mM sodium ortho-vanadate, 10 μM adenosine-tri-phosphate (ATP), 0.5 μM substrate, 0.001% (v/v) Nonidet-P40 (Sigma), 1% (v/v) dimethylsulfoxide]. The concentration of VEGFR2 was adjusted depending of the activity of the enzyme lot and was chosen appropriate to have the assay in the linear range. The reaction was stopped by the addition of 5 μl of a solution of HTRF detection reagents (0.1 μM streptavidine-XLent and 2 nM PT66-Eu-Chelate, an europium-chelate labelled anti-phospho-tyrosine antibody from Perkin Elmer) in an aqueous EDTA-solution (125 mM EDTA, 0.2% (w/v) bovine serum albumin in 50 mM HEPES/NaOH pH 7.0).
as §1, with “incubated for” for “incubated”, “normalized” for “normalised”

T1 sequence (P06213 1023-1298 limits assumed): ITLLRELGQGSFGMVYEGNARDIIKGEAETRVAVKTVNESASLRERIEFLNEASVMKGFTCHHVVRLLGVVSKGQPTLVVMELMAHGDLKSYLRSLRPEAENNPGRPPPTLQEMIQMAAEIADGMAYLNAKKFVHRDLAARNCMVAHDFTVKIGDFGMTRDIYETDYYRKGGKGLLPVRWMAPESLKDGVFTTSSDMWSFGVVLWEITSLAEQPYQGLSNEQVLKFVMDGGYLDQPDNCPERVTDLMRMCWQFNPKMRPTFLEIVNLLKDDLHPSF

With `Cn1ncc2c(C#Cc3cc(NC(=O)c4cccc(C(F)(F)F)c4)ccc3F)cncc21` [Example 1.9, N-[4-Fluoro-3-(1-methyl-1H-pyrazolo[3,4-c]pyridin-4-ylethynyl)-phenyl]-3-trifluoromethyl-benzamide], the IC50 is ≥ 10000 nM in assay [1] and < 1000 nM on human VEGFR2.

For `Cc1ccc(NC(=O)c2cccc(C(F)(F)F)c2)cc1C#Cc1cncc2c1cnn2C` [Example 1.6, N-[4-Methyl-3-(1-methyl-1H-pyrazolo[3,4-c]pyridin-4-ylethynyl)-phenyl]-3-trifluoromethyl-benzamide], the IC50 in assay [1] is ≥ 10000 nM; at human VEGFR2 it was < 1000 nM. With `Cc1ccc(NC(=O)Nc2cccc(C(F)(F)F)c2)cc1C#Cc1cncc2c1cnn2C` [Example 2.4, 1-[4-Methyl-3-(1-methyl-1H-pyrazolo[3,4-c]pyridin-4-ylethynyl)-phenyl]-3-(3-trifluoromethyl-phenyl)-urea], the IC50 on human VEGFR2 was < 1000 nM. In the case of `Cn1ncc2c(C#Cc3cccc(NC(=O)c4cccc(C(F)(F)F)c4)c3)cncc21` [Example 1.5, N-[3-(1-Methyl-1H-pyrazolo[3,4-c]pyridin-4-ylethynyl)-phenyl]-3-trifluoromethyl-benzamide], the values for the IC50 (in assay [1]; at human VEGFR2) were ≥ 10000 nM and < 1000 nM, respectively.

`Cn1ncc2c(C#Cc3cccc(NC(=O)Nc4ccccc4)c3)cncc21` [Example 2.1, 1-[3-(1-Methyl-1H-pyrazolo[3,4-c]pyridin-4-ylethynyl)-phenyl]-3-phenyl-urea]: the IC50 on human VEGFR2 was < 1000 nM.
